Data: patent US4594238A (Regents of University of Minnesota, priority 1984, dated 1986)

What was measured:
[1] = cited from earlier work; for Bone marrow toxicity: in vivo
[2] = cited from earlier work; for Benefit when given before platinum(II): given before the platinum (II); for Binding to plasma platinum: in vivo
[3] = Protection of rats against DDP toxicity by disulfiram via stomach tube, Example 1; type: in vivo, Male F344 (Fischer) rats; settings: disulfiram 2 g/kg via stomach tube 30 minutes before and 30 minutes after DDP
Method: Male F344 (Fischer) rats (average weight, 150 g) were obtained from the Charles River Breeding Laboratory. They were divided into groups of four rats, placed in methacrylate cages, and given National Institute of Health chow for rodents and water ad lib, for 7 days. Average weight of the rats was 180 g (range, 160-200 g) when injected.
Tetraethylthiuram disulfide (disulfiram) was obtained from Sigma Chemical Co., St. Louis MO. Sodium DDTC was prepared according to the procedure of Klopper and van der Kerk, Rec. Trav. Chim. 70:917 (1951); immediately prior to injection, it was dissolved in sterile water at a concentration of 100 mg/ml. Sodium bicarbonate was prepared in sterile water at a concentration of 50 mg/ml. All injections were carried out under brief ether anesthesia.
Otherwise, weight and BUN were determined at 5 days after injection, reportedly the time of maximal observed toxicity. Evidence of gastrointestinal toxicity was obtained qualitatively by noting the presence or absence of diarrhea 3-5 days after injection.
Disulfiram was administered to two groups of rats in lieu of NaDDTC, as described subsequently.

[4] = polar solvents; cited from earlier work
[5] = Urinary excretion of free and conjugated DDTC; type: in vivo, rats; settings: combination of DDTC and acetazolamide, even when NaDDTC dose reduced by 80%
Text: Intravenous administration was explored in an attempt to deliver larger quantities of free DDTC anion to the likely site of toxicity in the renal tubule; urinary excretion of DDTC was monitored as a means of estimating changes in tubular levels of free DDTC. The standard assay for DDTC anion utilizes a spectrophotometric determination following reaction with cupric ion to form the colored Cu(DDTC)2 complex. Unfortunately, the affinity of cupric ion for sulfur ligands is such that this metal ion will catalyze the decomposition of the DDTC glucuronide and therefore will not discriminate between free and conjugated DDTC. Ferric ion does react selectively with the free ligand, thereby providing a convenient assay for both free and total DDTC in urine.
Excretion of free and conjugated NaDDTC in the urine of rats was measured as follows. NaDDTC was administered in selected doses via intraperitoneal or intravenous injection. Rats were then placed in metabolic cages and urine was collected and analyzed at 30 minute intervals. Urine samples (0.1-5.0 ml) were added to 2 ml of a solution containing ferric nitrate (20 mM) and sodium citrate (200 mM). The dark Fe (DDTC)3 complex was extracted into chloroform (4 ml) by vortexing for 5 minutes. The mixture was chilled, centrifuged for 1 minute, and the chloroform layer separated. To this chloroform solution was added saturated aqueous cupric sulfate (2 ml), and the mixture was vortexed for 5 minutes, chilled, and centrifuged for 1 minute. The chloroform solution was separated and the Cu(DDTC)2absorbance measured at 435 nm. Free DDTC was determined by comparison of absorbance to a standard curve. Total DDTC was determined by addition of 0. 05-1.0 ml of urine to 3 ml of saturated cupric sulfate followed by incubation at 45° for 30 minutes. The resulting Cu(DDTC)2 complex was extracted into chloroform and analyzed as described above. DDTC-glucuronide excretion was determined by subtraction of free from total DDTC.

Compound: N.N.O=C([O-])C1(C(=O)[O-])CCC1.[Pt+2] [CBDCA]
- Bone marrow toxicity [1]: increased bone marrow toxicity

Compound: N[C@@H](CS)C(=O)O [cysteine]
- Benefit when given before platinum(II) [2]: Some benefit was reported
- Binding to plasma platinum [2]: may have the potential to bind to plasma platinum

Compound: NCC1(CN)CCCCC1.O=S(=O)([O-])[O-].[Pt+2] [TNO-6]
- Bone marrow toxicity [1]: increased bone marrow toxicity

Compound: CCN(CC)C(=S)SSC(=S)N(CC)CC [disulfiram, Tetraethylthiuram disulfide]
- BUN in survivors [3]: 55 to 180 mg/dL
- Necropsy, intestine [3]: grossly hemorrhagic fluid-filled intestine
- Weight loss and BUN levels in the survivors [3]: highly variable
- Animals that died before day 5 ([3]; in each group): Fifty
- Solubility in polar solvents [4]: relatively low solubility, particularly in polar solvents

Compound: chlorohydroxy-isopropylamineplatinum [CHIP]
- Kidney toxicity ([1]; compared to first generation agents): low in kidney toxicity
- Bone marrow toxicity [1]: high in bone marrow toxicity

Compound: CC(C)(S)[C@@H](N)C(=O)O [penicillamine]
- Benefit when given before platinum(II) [2]: Some benefit was reported
- Binding to plasma platinum [2]: may have the potential to bind to plasma platinum

Compound: CC(=O)Nc1nnc(S(N)(=O)=O)s1 [acetazolamide, reference compound]
- Renal excretion of DDTC with acetazolamide [5]: significant increases in renal excretion of DDTC
